Results: patent US20230312577A1, “DUAL KINASE-BROMODOMAIN INHIBITORS” (MONASH UNIVERSITY, priority 2020, published 2023)

Columns and labels:
[1] = system: panel of human multiple myeloma cell lines; experiment: Apoptosis assay (TMRE, flow cytometry); format: cell-based; conditions: 48 h
Description: A panel of human multiple myeloma cell lines (3×10^5) was incubated in the presence of Cpd 010 or DMSO vehicle control with indicated concentrations for 48 h before flow cytometric analysis of viability using Tetramethylrhodamine ethylester (TMRE) stains. Further apoptotic assay using only OPM2 cells was carried out using Cpd 010 or DMSO with TMRE stains.

[2] = system: PD-L1 and pAKT (PI3K substrate); experiment: In vivo target engagement from a single dose (PD-L1, pAKT), Eμ-Myc lymphoma; design: species or system mouse; conditions: single dose 35-45 mg/kg
Description: B6.SJL-PtprcPepc/BoyJ (B6.CD45.1) mice were inoculated via tail vein injection with 5×10^5 Eμ-Myc lymphoma cells and left untreated for 12-14 days. A single injection of Cpd 010 at 35-45 mg/kg, or vehicle control (30% HPBCD) was administered. Half of the mice (n=6) were harvested 6 h post injection while the other half (n=6) were harvested 16 h later. Assessment of tumour burden was carried out on single cell suspension of harvested lymph nodes, spleen and blood by flow cytometry using antibodies as above. PD-L1 MFI was assessed by flow cytometry in harvested LNs using anti-mouse PD-L1-PE (ThermoFisher Scientific, clone MIH5) or isotype control antibodies (Mouse IgG2b PE, #559529). Harvested LNs were also washed in PBS and lysates were collected using Laemmli Buffer (AlfaAeser #J61337). They were processed as per our Western Blot protocol (see above) before they were probed for primary pAKT antibodies. Spleen size and weights were also measured between the treatment groups.
In terms of target engagement, PD-L1 expression in the tumour cells were measured in the harvested LN and spleen. As expression of the Myc transgene in Eμ-Myc is not BET-de pendent, MYC cannot be measured as a read-out of BET inhibition, therefore PD-L1 was used as an indicator for BET inhibition. […] Similarly, pAKT (PI3K substrate) was suppressed by Cpd 010 in the lysates made from harvested LN.

[3] = system: pAKT (PI3K substrate) and MYC (BET target protein); experiment: Western Blot analysis in OPM2 cells; format: cell-based, human; conditions: 4 hours
Description: OPM2 cells (1.2×10^6) were treated with Cpd 010 or DMSO control at indicated concentrations for 4 hours. Lysates were prepared in ice-cold RIPA lysis buffer (Thermofisher, Life Technologies) and supplemented with Halt protease phosphatase inhibitor cocktail (Thermofisher, Pierce Biotechnology). Protein concentrations of lysate samples were determined by bicinchoninic acid assay (BCA assay) using the Thermo Scientific Pierce BCA Protein Assay Kit (ThermoFisher, Life Technologies) as per manufacturer's instructions. Absorbance for protein concentration estimation was measured using a BMG OPTIMA (Fluostar optima, BMG Labtech). Lysates (25-50 μg) were separated on pre-cast gels (Bis-Tris 4-12% gradient gels) (Bolt, Life Technologies) and transferred onto polyvinylidene difluoride (PVDF) membranes (Immobilon-FL, Merck). The membranes were sequentially incubated with primary antibodies o.n. at 4° C.; mouse anti-β-actin (Sigma-Aldrich, clone AC-74), rabbit anti-cMyc (Cell Signaling, #9402S), rabbit anti-pAKT Ser473 (Cell Signaling, #9271), rabbit anti-pS6 Ser240/244 (Cell Signaling, #2215). Subsequently they were incubated with horse radish pe-roxidase (HRP)-conjugated secondary antibodies for 1-2 h at r.t before the detection of proteins by enzymatic (chemiluminescent) reaction using a ChemiDoc^Tm XRS+ System (Bio-Rad La-boratories Inc.). […]

BRD2 = molecular target: T1, BRD2 (Homo sapiens, UniProt P25440); experiment: Cellular thermal shift assay (CETSA) in Ramos cells; format: cell-based; conditions: 20 μM, 40 min, vs DMSO
T1 construct: endogenous in cells; host or cells: Ramos
Description: Ramos cells (human Burkitt lymphoma cell line) at 20×10^6 were washed in PBS followed by resuspension in 5 mL serum-free RPMI. They were treated either with Cpd 010 or DMSO at 20 μM for 40 min at 37° C. with 5% CO2. Cells were then collected, resuspended in PBS and separated into PCR tubes. They were heated at designated temperature for strictly 3 min followed by another 3 min at 25° C. on ABI Applied Biosystems 9902 Veriti PCR Thermal Cycler. Immediately, they were placed in liquid nitrogen for snap freezing. The samples were freeze-thawed until the final samples were place on ice. They were centrifuged and supernatants were collected. Loading dye was mixed and these were processed as per our Western Blot protocol (see above). The following primary antibodies were used; rabbit BRD4 (Cell Signaling, #13440), rabbit BRD2 (Cell Signaling, #5848), and mouse anti-β-actin (Sigma-Aldrich, clone AC-74).

BRD4 = BRD4 (Homo sapiens, UniProt O60885); experiment: Chromatin immunoprecipitation and sequencing analysis in OPM2 cells; format: cell-based; design: endogenous in cells; host or cells: OPM2; conditions: 250 nM, 2 h
Description: OPM2 cells (4×10^6) were treated with 250 nM of Cpd 010 or DMSO control for 2 h. Cells were cross-linked, and nuclei were lysed to achieve a mean DNA fragment size of 300-500 bp. Immunoprecipitation was performed using protein A/G magnetic beads for at least 12 h at 4° C. using the following antibodies: anti-BRD4 anti-H3K27Ac, anti-RNA polymerase II. Reverse crosslinking of DNA was performed, and DNA was purified using QIAquick PCR purification kit. The KAPA Hyper Prep Kit was used to generate libraries as per the manufacturer's instruction, which sequenced on the NextSeq (Illumina; 75 bp SE).

MYC gene = experiment: RT-qPCR in OPM2 cells; format: cell-based, human; conditions: 2 h
Description: OPM2 cells (1×10^6) were treated with Cpd 010 or DMSO vehicle at indicated concentrations for 2 h. RNA was extracted from cell pellets using the PureLink™ RNA Mini Kit (ThermoFisher Scientific, #121839025) as per the manufacturer's instructions. cDNA was syn thesised with the SuperScript™ III cDNA synthesis kit (ThermoFisher Scientific, #18080093) according to the manufacturer's instructions. Quantitative PCR analysis of samples was per formed on the QuantStudio7 Flex RT-PCR system (ThermoFisher) with SYBR™ Master Mix (ThermoFisher Scientific, #4472903). L32 were used as the human control gene. Primer se quences were: Homo sapiens MYC F: […] R: […], Homo sapiens L32 F: […] R: TTGTGAGCGATCTCGGCAC. Each RT-qPCR am plification was performed in triplicate (technical triplicates) and repeated 2 times (biological replicates).

T1 sequence (P25440 whole entry): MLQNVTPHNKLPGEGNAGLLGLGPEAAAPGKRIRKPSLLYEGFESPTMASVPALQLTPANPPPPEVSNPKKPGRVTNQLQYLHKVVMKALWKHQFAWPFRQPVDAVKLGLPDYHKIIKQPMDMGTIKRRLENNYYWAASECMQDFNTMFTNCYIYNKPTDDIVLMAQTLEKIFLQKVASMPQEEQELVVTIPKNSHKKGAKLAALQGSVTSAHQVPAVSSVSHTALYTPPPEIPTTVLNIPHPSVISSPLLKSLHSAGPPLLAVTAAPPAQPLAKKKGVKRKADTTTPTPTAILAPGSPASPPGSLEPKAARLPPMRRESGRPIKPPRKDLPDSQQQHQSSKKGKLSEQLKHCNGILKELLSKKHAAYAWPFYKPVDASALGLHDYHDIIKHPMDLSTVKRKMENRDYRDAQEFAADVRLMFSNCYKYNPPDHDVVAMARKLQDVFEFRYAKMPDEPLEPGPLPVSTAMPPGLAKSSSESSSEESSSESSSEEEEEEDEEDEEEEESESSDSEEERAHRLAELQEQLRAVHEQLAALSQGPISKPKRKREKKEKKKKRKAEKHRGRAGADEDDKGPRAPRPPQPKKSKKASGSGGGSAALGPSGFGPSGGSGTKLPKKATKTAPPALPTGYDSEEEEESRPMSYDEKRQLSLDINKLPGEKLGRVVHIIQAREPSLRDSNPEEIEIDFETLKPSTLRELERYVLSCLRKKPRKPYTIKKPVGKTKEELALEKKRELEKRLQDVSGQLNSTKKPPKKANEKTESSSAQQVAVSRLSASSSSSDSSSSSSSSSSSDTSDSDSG

CC(=O)N1c2ccc(-c3ccc(CNC(=O)c4cn5cc(-c6cnc(N)nc6)nc(N6CCOCC6)c5n4)cc3)cc2CC[C@@H]1C [Cpd 010, (S)-N-(4-(1-acetyl-2-methyl-1,2,3,4-tetrahydroquinolin-6-yl)benzyl)-6-(2-aminopyrimidin-5-yl)-8-morpholinoimidazo[1,2-a]pyrazine-2-carboxamide]
relative sensitivity of the cell lines ([1]; U266 express MYCN instead of c-MYC): OPM2 cells were the most sensitive and U266 was the least sensitive | induction of apoptosis in multiple myeloma cell lines ([1]; six cell lines): induced dose-dependent apoptosis in five of the six treated cells | PD-L1 expression in tumour cells (indicator for BET inhibition) ([2]; harvested LN): significantly reduced | pAKT (PI3K substrate) ([2]; lysates from harvested LN): suppressed | levels of pAKT and MYC [3]: suppressed levels of both pAKT (PI3K substrate) and MYC (BET target protein) at all test concentrations | clearance of BRD2 protein with increasing temperature (BRD2): delayed clearance | BRD4 and RNA Pol II at MYC locus (BRD4): significant reduction in BRD4 and RNA Pol II | displacement of BRD4 from chromatin (BRD4): robust displace ment of BRD4 | MYC mRNA level (MYC gene): significant decrease in MYC mRNA level
